Assay results published in patent US9994546B2, “Cyclopropylamines as LSD1 inhibitors” (Incyte Corporation, priority 2014, dated 2018).

Each compound was assayed against LSD-1 enzyme (Homo sapiens (Human), UniProt O60341) (assay: LANCE LSD1/KDM1A demethylase assay (LSD1 histone demethylase biochemical assay)). Conditions: 1 nM LSD-1 enzyme, 1 hour preincubation at 25° C., 0.4 μM biotin-labeled Histone H3 peptide substrate.
Description: LANCE LSD1/KDM1A demethylase assay—10 μL of 1 nM LSD-1 enzyme (ENZO BML-SE544-0050) in the assay buffer (50 mM Tris, pH 7.5, 0.01% Tween-20, 25 mM NaCl, 5 mM DTT) were preincubated for 1 hour at 25° C. with 0.8 μL compound/DMSO dotted in black 384 well polystyrene plates. […] After stopping the reactions plates were incubated for 30 minutes and read on a PHERAstar FS plate reader (BMG Labtech).

| SMILES | IC50 |
| --- | --- |
| N#CCC1(N2CCC(N[C@@H]3C[C@H]3c3ccccc3)CC2)CN(C(=O)c2cnccn2)C1 [Example 111, [3-(4-{[(1R,2S)-2-phenylcyclopropyl]amino}piperidin-1-yl)-1-(pyrazin-2-ylcarbonyl)azetidin-3-yl]acetonitrile] | ≤ 100 nM |
| N#CCC1(N2CCC(N[C@@H]3C[C@H]3c3ccccc3)CC2)CN(C(=O)c2cn[nH]c2)C1 [Example 112, [3-(4-{[(1R,2S)-2-phenylcyclopropyl]amino}piperidin-1-yl)-1-(1H-pyrazol-4-ylcarbonyl)azetidin-3-yl]acetonitrile] | ≤ 100 nM |
| N#CCC1(N2CCC(N[C@@H]3C[C@H]3c3ccccc3)CC2)CN(C(=O)c2ccn[nH]2)C1 [Example 113, [3-(4-{[(1R,2S)-2-phenylcyclopropyl]amino}piperidin-1-yl)-1-(1H-pyrazol-5-ylcarbonyl)azetidin-3-yl]acetonitrile] | ≤ 100 nM |
| N#CCC1(N2CCC(N[C@@H]3C[C@H]3c3ccccc3)CC2)CN(C(=O)[C@@H]2CCOC2)C1 [Example 114, {3-(4-{[(1R,2S)-2-phenylcyclopropyl]amino}piperidin-1-yl)-1-[(3R)-tetrahydrofuran-3-ylcarbonyl]azetidin-3-yl}acetonitrile] | ≤ 100 nM |
| N#CCC1(N2CCC(N[C@@H]3C[C@H]3c3ccccc3)CC2)CN(C(=O)[C@H]2CCOC2)C1 [Example 115, {3-(4-{[(1R,2S)-2-phenylcyclopropyl]amino}piperidin-1-yl)-1-[(3S)-tetrahydrofuran-3-ylcarbonyl]azetidin-3-yl}acetonitrile] | ≤ 100 nM |
| N#CCC1(N2CCC(N[C@@H]3C[C@H]3c3ccccc3)CC2)CN(C(=O)[C@@H]2CCCO2)C1 [Example 116, {3-(4-{[(1R,2S)-2-phenylcyclopropyl]amino}piperidin-1-yl)-1-[(2S)-tetrahydrofuran-2-ylcarbonyl]azetidin-3-yl}acetonitrile] | ≤ 100 nM |
| N#CCC1(N2CCC(N[C@@H]3C[C@H]3c3ccccc3)CC2)CN(C(=O)[C@H]2CCCO2)C1 [Example 117, {3-(4-{[(1R,2S)-2-phenylcyclopropyl]amino}piperidin-1-yl)-1-[(2R)-tetrahydrofuran-2-ylcarbonyl]azetidin-3-yl}acetonitrile] | ≤ 100 nM |
| N#CCC1(N2CCC(N[C@@H]3C[C@H]3c3ccccc3)CC2)CN(C(=O)Cc2ccccn2)C1 [Example 118, [3-(4-{[(1R,2S)-2-phenylcyclopropyl]amino}piperidin-1-yl)-1-(pyridin-2-ylacetyl)azetidin-3-yl]acetonitrile] | ≤ 100 nM |
| N#CCC1(N2CCC(N[C@@H]3C[C@H]3c3ccccc3)CC2)CN(C(=O)c2cscn2)C1 [Example 119, [3-(4-{[(1R,2S)-2-phenylcyclopropyl]amino}piperidin-1-yl)-1-(1,3-thiazol-4-ylcarbonyl)azetidin-3-yl]acetonitrile] | ≤ 100 nM |
| N#CCC1(N2CCC(N[C@@H]3C[C@H]3c3ccccc3)CC2)CN(C(=O)c2nccs2)C1 [Example 120, [3-(4-{[(1R,2S)-2-phenylcyclopropyl]amino}piperidin-1-yl)-1-(1,3-thiazol-2-ylcarbonyl)azetidin-3-yl]acetonitrile] | ≤ 100 nM |
| CN(C)C(=O)CC1(N2CCC(N[C@@H]3C[C@H]3c3ccccc3)CC2)CN(C2CCOCC2)C1 [Example 121, N,N-dimethyl-2-[3-(4-{[(1R,2S)-2-phenylcyclopropyl]amino}piperidin-1-yl)-1-(tetrahydro-2H-pyran-4-yl)azetidin-3-yl]acetamide] | ≤ 100 nM |
| CNC(=O)CC1(N2CCC(N[C@@H]3C[C@H]3c3ccccc3)CC2)CN(C2CCOCC2)C1 [Example 122, N-methyl-2-[3-(4-{[(1R,2S)-2-phenylcyclopropyl]amino}piperidin-1-yl)-1-(tetrahydro-2H-pyran-4-yl)azetidin-3-yl]acetamide] | ≤ 100 nM |
| CN(C)C(=O)CC1(N2CCC(N[C@@H]3C[C@H]3c3ccccc3)CC2)CN(CC2CC2)C1 [Example 123, 2-[1-(cyclopropylmethyl)-3-(4-{[(1R,2S)-2-phenylcyclopropyl]amino}piperidin-1-yl)azetidin-3-yl]-N,N-dimethylacetamide] | ≤ 100 nM |
| CNC(=O)CC1(N2CCC(N[C@@H]3C[C@H]3c3ccccc3)CC2)CN(CC2CC2)C1 [Example 124, 2-[1-(cyclopropylmethyl)-3-(4-{[(1R,2S)-2-phenylcyclopropyl]amino}piperidin-1-yl)azetidin-3-yl]-N-methylacetamide] | ≤ 100 nM |
| O=C(O)CC1(N2CCC(N[C@@H]3C[C@H]3c3ccccc3)CC2)CN(Cc2ncccn2)C1 [Example 125, [3-(4-{[(1R,2S)-2-phenylcyclopropyl]amino}piperidin-1-yl)-1-(pyrimidin-2-ylmethyl)azetidin-3-yl]acetic acid] | ≤ 100 nM |
| O=C(O)CC1(N2CCC(N[C@@H]3C[C@H]3c3ccccc3)CC2)CN(Cc2cncnc2)C1 [Example 126, [3-(4-{[(1R,2S)-2-phenylcyclopropyl]amino}piperidin-1-yl)-1-(pyrimidin-5-ylmethyl)azetidin-3-yl]acetic acid] | ≤ 100 nM |
| O=C(O)CC1(N2CCC(N[C@@H]3C[C@H]3c3ccccc3)CC2)CN(Cc2cscn2)C1 [Example 127, [3-(4-{[(1R,2S)-2-phenylcyclopropyl]amino}piperidin-1-yl)-1-(1,3-thiazol-4-ylmethyl)azetidin-3-yl]acetic acid] | ≤ 100 nM |
| O=C(O)CC1(N2CCC(N[C@@H]3C[C@H]3c3ccccc3)CC2)CN(Cc2cncs2)C1 [Example 128, [3-(4-{[(1R,2S)-2-phenylcyclopropyl]amino}piperidin-1-yl)-1-(1,3-thiazol-5-ylmethyl)azetidin-3-yl]acetic acid] | ≤ 100 nM |
| O=C(O)CC1(N2CCC(N[C@@H]3C[C@H]3c3ccccc3)CC2)CN(Cc2nccs2)C1 [Example 129, [3-(4-{[(1R,2S)-2-phenylcyclopropyl]amino}piperidin-1-yl)-1-(1,3-thiazol-2-ylmethyl)azetidin-3-yl]acetic acid] | ≤ 100 nM |
| O=C(O)CC1(N2CCC(N[C@@H]3C[C@H]3c3ccccc3)CC2)CN(CCC(F)(F)F)C1 [Example 130, [3-(4-{[(1R,2S)-2-phenylcyclopropyl]amino}piperidin-1-yl)-1-(3,3,3-trifluoropropyl)azetidin-3-yl]acetic acid] | ≤ 100 nM |
